Series [1] in a line: In vitro drug release from dialysis bag. The class given is physicochemical. To be noted: first 6 h, pH 5.4, 37°C. As to the method: A dialysis bag (MWCO = 12 kDa) was used to compare 2 mL of free drugs, Car-NIO and Mel-NIO for drug release (in vitro). This bag was placed in a phosphate buffered saline (PBS) solution (50 mL, 1X, pH = 5.4) with slow stirring (50 rpm) at 37°C. At certain intervals, a portion of the PBS solution was removed and replaced with a new aliquot.

Series [2] has as its system MCF-7 cells. As to the kind of experiment: MTT cytotoxicity assay. Type of series: cell-based. To be noted: Homo sapiens, MCF7, MCF-7, 48 h, read-out: IC50 (viability). As to the method:
(§1) The 3-(4,5-dimethylthiazol-2-yl)-2,5-diphenyl-2H-tetrazolium bromide (MTT) assay is a colorimetric method that uses the transformation of yellow MTT into purple formazan. The following procedures were carried out in a clean environment using MTT Assay Kit (Cell Proliferation) (catalog number: ab211091, Abcam, United Kingdom), with the use of a Laminar flow cabinet meeting biosafety standard II (Baker, SG403INT, Sanford, ME, United States), l0^4 cells/well were subjected to varying doses of Car-NIO (5, 10, 25, 50, and 100 μM) ([Tehrani et al., 2018]) and Mel-NIO (5, 10, 25, 50, and 100 μM) ([Yaacoub et al., 2021]) and olaparib (5, 10, 25, 50, and 100 μM) ([Ashmawy et al., 2017]). After 48 h, we added 2.5 μg/mL of MTT to each well and incubated the plates at 37°C for another 4 h. After the formation of formazan crystals, 10% sodium dodecyl sulfate (200 μL/well) was used to dissolve the crystals. We measured the absorbance at 595 nm, and a positive control that causes 100% mortality under the same conditions was utilized. Using the following formula, the change in viability was given as a percentage was calculated: Cytotoxicity %=Extract reading/Negative control reading x100
(§2) Viability % = 100- Cytotoxicity%, The impact of each treatment is measured by its IC50 (the concentration at which 50% of the viability is inhibited).
(In general: Formazan colour is commonly taken as a measure of viable cells.)

For series [3], the system named is MDA-MB-231 cells. As to the kind of experiment: MTT cytotoxicity assay. The class given is cell-based. The conditions noted are these: Homo sapiens, MDA-MB-231, 48 h, read-out: IC50 (viability). Here is the method: as §1, §2
The subject of series [4] is MCF-7 cells. Kind of series: Quantitative RT-PCR of marker genes. Type of series: cell-based. To be noted: MCF-7, vs untreated cancer cells. The source says: (§3) The cells’ total RNA was extracted with the help of the RNA Mini Kit from Ambion by Life Technologies by Thermo Scientific (catalog number: 12183018A). To ensure the integrity of the RNA samples, we used a NanoDrop® ND-1000 Spectrophotometer from NanoDrop Technologies in Wilmington, Delaware, United States A High Capacity cDNA Reverse Transcription Kit (catalog number: 4374966) from Thermo Scientific was then used to amplify the cDNA. The Maxima SYBR Green qPCR Master Mix (2X) kit from Thermo Scientific, (catalog number: K0251), was used for real-time PCR amplification ([Shehata et al., 2018]). The housekeeping GADPH (for mRNA) or U6 (for miRNA) were used as a standard. The 2^−∆∆ct formula was used to calculate the levels of target gene expression ([Livak and Schmittgen, 2001]). Table 1 contains the sequences of the desired gene primers.

The subject of series [5] is MDA-MB-231 cells. As to the kind of experiment: Quantitative RT-PCR of marker genes. The conditions noted are these: MDA-MB-231, vs untreated cancer cells. The class given is cell-based.
Description: as §3

Series [6] concerns MCF-7 cells. As to the kind of experiment: Cell cycle distribution by flow cytometry (propidium iodide). Type of series: cell-based. The conditions noted are these: MCF-7, 48 h at IC50 concentration. As to the method: (§4) Overnight, the cells were cultured in 100-mm plates at a density of 2 × 10^6 cells/mL per well using fresh culture media. Treatment with Car-NIO (48.83, 51.4 μM), Mel-NIO (21.23, 43.65 μM), and olaparib (23.31, 32.55 μM) for 48 h began the next day. After harvesting, the cells were fixed in 70% ethanol at […] for 12 h. After that, the cells were exposed to RNase (10 mg/mL) and propidium iodide (50 μg/mL) for 30 min. The cell cycle distribution was analyzed using flow cytometry, and the data were analyzed using FlowJo (TreeStar, Ashland, OR, United States) ([Mei et al., 2019]).

Series [7] relates to MDA-MB-231 cells. The series is described as above. Type of series: cell-based. To be noted: MDA-MB-231, 48 h at IC50 concentration. As to the method:
as §4

In series [8] the test system is human epidermal growth factor receptor 2-negative, metastatic breast cancer and a hereditary BRCA mutation. Also noted: method as in Tutt et al., 2021. The conditions noted are these: olaparib monotherapy rather than the standard treatment; ref Tutt et al., 2021; cited from earlier work.
The subject of series [9] is MCF-7 cells. As to the kind of experiment: Lipid peroxidation (MDA) detection. To be noted: MCF-7, 48 h at IC50 concentration, vs untreated cancer cells. Type of series: cell-based. As to the method:
(§5) For this assay, the cells (2 × 10^6 cells/mL) were seeded onto 96-well culture plates to determine lipid peroxidation levels. Following a 48-h incubation with Car-NIO (48.83, 51.4 μM), Mel-NIO (21.23, 43.65 μM), and olaparib (23.31, 32.55 μM), cells were collected and washed twice with phosphate-buffered saline. The cells were harvested with a sonicator probe (VCX-130 W, Newtown, United States) on ice, and then disrupted by ultra-sonication for 5 s. Following the manufacturer’s guidelines for best results, the malondialdehyde (MDA) was detected in the cell extract using the MDA test kit (catalog number: ab287797, Abcam, United Kingdom). The microplate reader was used to determine the MDA concentration at a wavelength of 532 nm (Tecan, Mannedorf, Switzerland) ([Gérard-Monnier et al., 1998]).

In series [10] the test system is MDA-MB-231 cells. Kind of series: Lipid peroxidation (MDA) detection. The class given is cell-based. To be noted: MDA-MB-231, 48 h at IC50 concentration, vs untreated cancer cells. As to the method: as §5

In turn, melittin yielded a drug release in series [1] of 72.3%.

With `NCCC(=O)N[C@@H](Cc1cnc[nH]1)C(=O)O` [carnosine, β-alanyl-L-histidine], the drug release in series [1] is 43%.

As usually defined, the IC50 is the concentration at which inhibition is half-maximal. For `O=C(c1cc(Cc2n[nH]c(=O)c3ccccc23)ccc1F)N1CCN(C(=O)C2CC2)CC1` [olaparib], the half-inhibitory concentration (IC50) with MCF-7 cells [2] was found to be 23.3 µM. For the same compound, in the series with MDA-MB-231 cells [3], the half-inhibitory concentration (IC50) worked out at 32.5 µM. Also, the “expression level of miRNA-183” value in the series with MCF-7 cells [4] (U6 as standard) is on record as “significant downregulation”. Besides, in the series with MCF-7 cells [4] (relative to GADPH), the “expression level of Bcl2” value was “significant downregulation”, the “expression level of FOXO3” value is “significantly upregulated”, the “expression level of PARP 1” value is “significant downregulation” and the “expression level of PDCD4” value is “significantly upregulated”. In the series with MCF-7 cells [4] (relative to GADPH), the “mRNA expression of Bax” value was “significant upregulation”, the “mRNA expression of P53” value was “significant upregulation”, the “mRNA expression of caspase-3” value is listed as “significant upregulation” and the “mRNA expression of caspase-9” value was “significant upregulation”. In the series with MDA-MB-231 cells [5] (U6 as standard), the “expression level of miRNA-183” value is “significant downregulation”. Further, in the series on MDA-MB-231 cells [5] (relative to GADPH), the “expression level of Bcl2” value was “significant downregulation”, the “expression level of FOXO3” value was “significantly upregulated”, the “expression level of PARP 1” value was “significant downregulation” and the “expression level of PDCD4” value was “significantly upregulated”. Moreover, in the series on MDA-MB-231 cells [5] (relative to GADPH), the “mRNA expression of Bax” value was “significant upregulation”, the “mRNA expression of P53” value is listed as “significant upregulation”, the “mRNA expression of caspase-3” value is “significant upregulation” and the “mRNA expression of caspase-9” value is reported as “significant upregulation”. Further, in the series with MCF-7 cells [6], the “cells in G0/1 phase” value was determined as 63.2% and the “cells in S phase” value is 8.6%. In addition, in the series with MDA-MB-231 cells [7], the “cells in G0/1 phase” value is reported as 83.0% and the “cells in S phase” value was 3.2%. Moreover, the “extension of median progression-free survival” value in series [8] is listed as 2.8 months. Further, the MDA level entry with MCF-7 cells [9] is “significant downregulation”. For the same compound, in the series with MDA-MB-231 cells [10], the MDA level entry is on record as “significant downregulation”.

The values are drawn from article PMC10552532, “Evaluation of anti-cancer effects of carnosine and melittin-loaded niosomes in MCF-7 and MDA-MB-231 breast cancer cells” (Frontiers in Pharmacology, 2023).
